Molecules are shown by their SMILES.

By melting point is commonly meant the temperature, or range, at which the solid turns liquid. As for `CS(=O)(=O)N(Cc1cccnc1)c1ccc(C#N)cc1`, the melting point is 73 to 75 °C.

`O=[N+]([O-])c1ccccc1NCc1ccccc1` registered a melting point of 65 to 67 °C. For `N#Cc1cnn2c1N(C(=O)CCl)CC=C2c1ccc(Cl)cc1`, the melting point lay in the range of 198 to 199 °C. The compound `COc1cc(-c2nc(-c3cc(OC)c(OCc4ccccc4)c(OC)c3)c(-c3cc(OC)c(OCc4ccccc4)c(OC)c3)o2)cc(OC)c1OCc1ccccc1` gave a melting point of 80 to 120 °C. Take `CCOC(=O)c1cccc(CN2CCN(c3nc(C)c(C(=O)NCc4ccccc4)s3)C2=O)c1`: the melting point lay in the range of 118 to 120 °C.

On to `CCCCCCCCCCCCCCCCNc1ccc(COC(C)=O)cc1`, for which the melting point fell in the range of 43 to 45 °C. The result for `Cc1ccc(O)c2c1CCC2=NO` reads 148 to 150 °C.

`CCCc1nc2cccc(C(=O)OC)c2n1Cc1ccc(-c2ccccc2-c2nnn[nH]2)cc1` displayed a melting point of 195 to 196 °C.

Compound `CC1CCN=C2C(=O)c3cc(Br)ccc3N21` (centres undefined) registered a melting point of 127 to 129 °C.

Compound `CCn1cc(C(=O)O)c(=O)c2cc(F)c(N3CCN(CCO)CC3)c(F)c21` gave a melting point of 225 to 228 °C. Compound `COc1ccc(-n2nc(CC(C(=O)N(C)O)c3ccc(Cl)cc3)cc2-c2ccc(Cl)cc2)cc1` (centres undefined) registered a melting point of 113 to 117 °C.

`COc1ccc(C(=O)c2sc3cc(OC)ccc3c2-c2ccccc2)cc1` came in with a melting point of 127 to 128 °C. The result for `O=C(O)c1cn2c(nc1=O)CCCCC2` reads 198 °C. `CCCc1nc2c(N)nc3cc(OCCCn4cccc4)ccc3c2s1` came in with a melting point of 152 to 154 °C. The result for `CCOC(=O)C1=CCCCC1S(=O)(=O)Nn1cccc1C1CC1` (centres undefined) reads 95 to 96 °C; that for `Cc1ccc2c(c1)c1c(OCC#N)cccc1n2Cc1ccccc1`, 188 °C. In turn, `CC#CCOc1ccc(S(=O)(=O)C2(C(=O)NO)CCOCC2)cc1` came in with a melting point of 210 °C. The result for `CCCCn1cc(S(C)=O)c(=O)c2sccc21` (centres undefined) reads 137 to 138 °C; that for `COC(=O)c1cccc(OCCC(C#N)NC(=O)C(Cc2cccc(C)c2)NC(=O)C(c2ccccc2)c2ccccc2)c1` (centres undefined), 152 to 153 °C.

For the compound `COCCNC(=O)c1ccc(/C=C/C(=O)O)cc1`, the melting point came to 205 °C.

As to `CCn1cc(C(=O)O)c(=O)c2cc(OC)c(C3CCCCC3)cc21`, the melting point fell in the range of 176 to 178 °C. `Cc1oc(-c2ccc3ccccc3c2)nc1COc1ccc(COc2ncccc2CC(=O)O)cc1` showed a melting point of 155 to 156 °C.

The compound `CS(=O)(=O)NCCSc1cccc2nccn12` had a melting point of 130 to 131 °C.

The compound `O=C(O)c1[nH]c2cc(Br)c(Cl)cc2c1-c1ccccc1` displayed a melting point of 241 to 242 °C. The result for `CS(=O)(=O)c1ccc(-c2cnn(CC(F)(F)F)c(=O)c2SC2CCCC2)cc1` reads 149 to 151 °C; that for `CCOC(=O)c1nc2c(=O)[nH]c3cc(C(F)(F)F)ccc3n2c1C`, above 250 °C.

The compound `COc1ccc(CNc2n[nH]c(N)c2C#N)cc1` registered a melting point of 148 to 149 °C.

As for `Cc1nn(-c2c(Cl)cc(C(F)(F)F)cc2Cl)cc1S(C)(=O)=O`, the melting point was in the range of 168 to 169 °C.

In the case of `O=C(NCc1ccc(Cl)cc1)c1cn(CCc2ccccc2)c2oc(CCl)cc2c1=O`, the melting point was 150 to 153 °C. The result for `NS(=O)(=O)c1cc(C(=O)O)cc([N+](=O)[O-])c1Oc1ccccc1` reads 255 to 256 °C; that for `COc1cc(OC)c(-c2cc3ccccc3n2C)cc1C=CC(=O)c1ccc(S(=O)(=O)NO)cc1`, above 260 °C. The result for `c1ccc(C(c2ccccc2)N2CCC2)cc1` reads 107 to 109 °C; that for `O=C(Nc1ccc2[nH]c(=O)[nH]c2c1)C(=O)N1CCC(Cc2ccccc2)CC1`, above 260 °C; that for `CCOC(=O)C1CCc2c(n(C)c3ccc(Cl)cc23)C1` (centres undefined), 126 to 127 °C. Compound `O=[N+]([O-])c1ccc(C2=NNC(CO)Cc3cc4c(cc32)OCO4)cc1` (centres undefined) registered a melting point of 132 to 134 °C. The compound `CC(C)(C)c1ccc2c(c1)CNC2=O` came in with a melting point of 132 to 134 °C. The result for `CCN1CCN(Cc2nc(-c3ccc4c(c3)Nc3ccccc3S4)cs2)CC1` reads 182 to 184 °C; that for `COC(=O)c1cc(S(C)(=O)=O)ccc1OC`, 113 to 115 °C; that for `Nc1cccc(O)c1NC(=O)Nc1cccc(C(F)(F)F)c1`, 188 to 189 °C. Take `Cn1ccnc1Sc1cc(Cl)ccc1N`: the melting point was in the range of 116 to 120 °C.

Turning to `CS(=O)(=O)c1ccc(-c2oc(C(=O)O)cc(=O)c2Oc2ccc(F)cc2F)cc1`, the melting point was determined as 245 °C. `O=C(NC(Cc1c[nH]c2ccccc12)C(=O)NCc1cc(C(F)(F)F)cc(C(F)(F)F)c1)c1ccccc1` (centres undefined): the melting point lay within 182 to 184 °C. The result for `Nc1cc2c(Nc3ccc(F)c(C(F)(F)F)c3)ncnc2cn1` reads 252 to 255 °C; that for `O=C(O)CCC(=O)c1ccc(NC(=O)C2(Cl)CC2)cc1`, 178 to 179 °C. The result for `CC1(c2ccccc2)Cc2c3c(c(Cl)c(Cl)c2C1=O)OC(C(=O)O)C3` (centres undefined) reads 188 °C; that for `c1cc(CN2CCOCC2)cc(-n2cnc3cc(-c4ccoc4)cnc32)c1`, 182 to 184 °C; that for `Brc1cccc(C2Cc3cnc(Nc4ccc(CCNCc5ccccc5)cc4)nc3-c3ccccc32)c1` (centres undefined), 98 to 100 °C.

Compound `CN1CCN(c2cccc(-c3ccc(C#N)c(=O)[nH]3)c2)CC1` gave a melting point of 264 to 267 °C. The result for `CCOC1CCC(=O)N1S(=O)(=O)C=Cc1ccc(OC)cc1` (centres undefined) reads 134 to 136 °C; that for `CC(=O)Nc1cccc(C2CCNCC2)c1`, 102 to 104 °C. Take `CC(C)Cn1cnc2c(N)nc3ccc(-c4ccccc4)cc3c21`: the melting point lay within 203 to 204 °C. The result for `O=C(NCCCCCCOC(=O)N1CCC2(CCCC2)CC1)OC1CCN(C(=O)Oc2ccc(-c3ccccc3)cc2)CC1` reads 110 to 111 °C. The result for `CCC/C=C/C(=O)NC(=O)OC(C)(C)C` reads 71 to 72 °C; that for `CC1(C)NC(=O)N(c2ccc(C#N)c(C(F)(F)F)c2)C1=O`, 210 °C; that for `CCCCOc1c(CNC(=O)OC(C)(C)C)n(CC2CC2)c(=O)c2ccc(-c3cnco3)cc12`, 160 to 161 °C.

Consider `BrCC1(c2ccc3c(c2)Cc2ccccc2-3)OCCO1`, for which the melting point is 90 °C. The result for `Nc1cc([N+](=O)[O-])c(N)cc1SCC(O)CO` (centres undefined) reads 164 °C; that for `O=C(Nc1ccc2cn[nH]c2c1)C(=O)N1CCC(Cc2ccc(F)cc2)CC1`, 162 to 164 °C; that for `Cc1cnc(C)n2c1c(CCSC1=NCCN1)c1ccccc12`, 157 to 159 °C. The result for `ClC1=NC2CCCc3c(Cl)ccc(c32)N1` (centres undefined) reads 190 to 192 °C; that for `OCc1cccc2c1CCc1ccccc1-2`, 108 to 110 °C. The result for `COc1ccc(N(C)c2nc(N)nc3[nH]c4ccccc4c23)cc1` reads 234 °C; that for `COC(=O)CCCCNC(=O)C(CO)NS(=O)(=O)c1ccc(Cl)cc1` (racemic), 92 to 94 °C; that for `c1cncc(NCCCOc2cccc(CN3CCCCC3)c2)c1`, 120 to 122 °C.
